Experimental data: patent US9150586B2, “Piperidino-dihydrothienopyrimidine sulfoxides and their use for treating COPD and asthma” (Boehringer Ingelheim International GmbH, priority 2011, dated 2015)
Entries after “also recorded” stand apart in the source; their conditions may differ.

Experiments:
[1] = system: LPS-induced neutrophil influx into bronchoalveolar lavage fluid; test: LPS-induced lung inflammation model: inhibition of LPS-induced neutrophil influx into bronchoalveolar lavage fluid; format: in vivo, male Wistar rats; details: for ED50 (half-maximal effective dose), inhibition of LPS-induced neutrophil influx into BALF: male Wistar rats, oral by gavage, BALF 4 hours after end of LPS exposure, nonlinear fit; for ED50 found in efficacy studies in the rat (restated in dose table): p.o., LPS-induced neutrophil influx
Experimental: The anti-inflammatory activity of Examples 1 and 2 and of Prior art compounds A and D was assessed in an in vivo LPS-induced lung inflammation model in rats.
As a measure of the pharmacological potency of the above mentioned compounds the half-maximal effective dose (ED50) in regard to the inhibition of lipopolysaccharide-induced (LPS-induced) neutrophil influx into the bronchoalveolar lavage fluid (BALF) was determined by assessing the dose response relationship. Bacterial endotoxins (lipopolysaccharides [LPS]) are components of the outer bacterial cell membrane which play an important role in the pathogenesis of infections with gram-negative bacteria. It is known that inhalation of such aerosolized LPS induces a dose-dependent increase in neutrophils to lung tissues and airspaces in rats which may be detected by analyzing the amount of neutrophils in the bronchoalveolar lavage fluid (BALF). However, this dose-dependent increase of neutrophils in the BALF should be diminished in a dose-dependent way in the presence of an effective PDE4-inhibitor.
Male Wistar rats (HanWistar) from an approved local distributor were used for the experiments. The ordered weight of the animals was in the range of 200-250 g. Animals were fasted overnight before the experiment. A total number of 32 animals were used for each experiment. Eight animals (n=8) per dose were used for the treatment groups, […].
The animals of the LPS-control and of the negative control groups received“vehicle only” (“vehicle only” corresponds to 10 ml/kg body weight 0.5% Natrosol solution). The other groups were treated with the different doses of either Example compound 1, Example compound 2, Prior art compound A or Prior art compound D respectively (see Table D).
The amount of compound for the highest concentration tested for each compound was suspended in 10 ml 0.5% Natrosol (Hydroxyethylcellulose) solution and then diluted to the respective concentrations as shown in Table D. The respective compound suspension or “vehicle only” (10 ml/kg body weight 0.5% Natrosol solution) was administered orally by gavage. The resulting doses of the individual compounds corresponded to Table D:
One hour (0.5 hour for Prior art compound A and for Prior art compound D) after compound application (time set to allow for sufficient exposure as guided by prior pharmacokinetic experiments) the animals were exposed to nebulised/aerosolized LPS. The whole body exposure of 12 animals each was performed in a plexi glas chamber. Animals were separated/individualized with perforated metal plates. The aerosol was generated with a commercially available nebuliser (PARI Master+PARI LL nebuliser (Pari GmbH). The concentration of the nebulized LPS-solution was 1 mg/ml air. The duration of the LPS exposure was 30 minutes.
4 hours after the end of LPS exposure animals were anesthetised with Isoflorane and euthanised thereafter by cervical dislocation. The trachea was cannulated and BALF was performed using 2×5 mL lavage buffer (phosphate buffered saline (PBS)+2% BSA).
Determination of neutrophil content of the BALF was performed using an ADVIA 120 blood hemacytometer (Bayer Diagnostics). Neutrophil data were normalised (Positive Control (=LPS treatment alone)=100%, Negative Control (no LPS treatment, administration of “vehicle only”)=0%) and expressed as percent of LPS control. The ED50 was calculated using a nonlinear fit (with the Graph Pad Prism software and a sigmoidal dose response fit).
The ED50-value is the half-maximal effective dosis of the compound in question with respect to its inhibition of an LPS-induced neutrophil influx into BALF. Consequently a very small ED50-value stands for a good capability of the respective compound to prevent neutrophil influx into the lung tissue after LPS exposure and therefore for a good capacity of the respective compound to prevent inflammation of the lung tissue. […]

[2] = Gastric emptying and gastrointestinal transit in conscious rats (barium sulfate test meal); format: in vivo, Wistar rats; details: for intestinal transit versus negative control: doses up to 30-fold ED50 dose p.o.
Experimental: In order to evaluate whether the compounds of the present invention lead to gastrointestinal side effects the compounds of the invention have been administered to rats 30 minutes before the rats were fed with a test meal comprising barium sulfate. After that it was tested whether gastric emptying and/or gastrointestinal transit in these rats was affected by the presence of these compounds.
The effects of the compounds Example 1 and Example 2 on gastric emptying and gastrointestinal transit in conscious rats has been investigated as described below. Wistar rats of both sexes weighing 130-160 g (ages: male 7 wk, female 8 wk) were used. The animals are obtained from an approved local distributor, a minimum of four days quarantine is required before use, during which time the animals are maintained under routine animal care procedures. Groups of up to 5 animals are housed in cages in a room with controlled temperature and humidity and a light/dark cycle with the lights on from 6 a.m. to 6 p.m. The animals have access to normal rodent chow and water ad libitum. The animals are transported to the laboratory on the day of experimentation. Gastric emptying as well as small intestinal propulsion are determined using a barium sulfate test meal. Five rats Crl:WI(Han) of each sex (n=10) were used. The animals were deprived of food 17 h prior to the experiment but allowed free access to water.
The drug under investigation (drug was suspended to the concentration of 10 ml/kg body weight in 0.5% Natrosol solution) or the negative control (vehicle alone was given 10 ml/kg body weight) was administered 30 min. (p.o.) before the test meal at doses calculated to be 3-fold, 10-fold or 30-fold the ED50 found in efficacy studies in the rat.
The test meal (suspension of 7.5 g barium sulfate in 10 ml salt-free water) is given orally by gavage at a dose of 2 ml/100 g body weight. Thirty minutes after the administration of the test meal the animals were killed in deep isoflurane anaesthesia by cervical dislocation. The stomach and the intestine were then exposed by laparatomy and removed.
The removed stomach was weighed, then incised, the contents removed and the empty stomach is weighed again.
The length of gut traversed with barium sulfate in relation to the whole length of the gut is determined by direct measurements using a ruler.
The gastric content was calculated from the weight difference between the filled and empty stomach and normalized to 100 g body weight. Thus, an increase in weight difference indicated an impaired gastric emptying, whereas a decrease in weight difference indicated an enhanced gastric emptying.
The length of gut traversed with barium sulphate (as judged by visual inspection) in relation to the whole length of the gut (from the pylorus to the rectum) is determined by direct measurements using a ruler.
Intestinal transit is calculated as the percentage movement of barium sulphate in the intestine in relation to the whole length of the gut. Consequently an increased intestinal transit length indicated an accelerated intestinal transit whereas a decreased intestinal transit length indicated decelerated intestinal transit.
Data are expressed as mean±standard deviation (SD). For each dose, comparisons were performed using an analysis of variance (ANOVA) and a post hoc Dunnett test to compare the various groups to the controls when the ANOVA was significant. p<0.05 was considered significant.

[3] = all tested doses up to 30-fold ED50 dose p.o.

SMILES	ED50 (half-maximal effective dose), inhibition of LPS-induced neutrophil influx into BALF [1]	ED50 found in efficacy studies in the rat (restated in dose table) [1]	gastric emptying versus negative control ([2]; 3-fold ED50 dose p.o., 30 min before test meal)	gastric emptying versus negative control ([2]; 10-fold ED50 dose p.o., 30 min before test meal)	gastric emptying versus negative control ([2]; 30-fold ED50 dose p.o., 30 min before test meal)	gastric emptying versus negative control [2, 3]	intestinal transit versus negative control [2]
[O-][S+]1CCc2nc(N3CCC(c4ccc(Cl)cc4)CC3)nc(NC3(CO)CCC3)c21 (single isomer, unassigned) [Example 1]	0.31 mg/kg body weight	(ED50 = 0.31 mg/kg BW	no relevant differences	no relevant differences	only a very moderate enhancement of the weight difference per body weight	neither showed a substantially enhanced or impaired gastric emptying	nor a substantially accelerated or decelerated intestinal transit; also recorded: no significant differences
[O-][S+]1CCc2nc(N3CCC(c4cccc(Cl)c4)CC3)nc(NC3(CO)CC3)c21 (stereo not shown) [Prior art compound D, reference compound]	6.66 mg/kg body weight	–	–	–	–	–	–
[O-][S+]1CCc2nc(N3CCC(c4ncc(Cl)cn4)CC3)nc(NC3(CO)CCC3)c21 (single isomer, unassigned) [Example 2]	0.1 mg/kg body weight	(ED50 = 0.1 mg/kg BW	–	–	–	neither showed a substantially enhanced or impaired gastric emptying; also recorded: no relevant differences	nor a substantially accelerated or decelerated intestinal transit; also recorded: no relevant differences
[O-][S+]1CCc2nc(N3CCC(c4ccc(Cl)cc4)CC3)nc(NC3(CO)CC3)c21 (stereo not shown) [Prior art compound A, reference compound]	1.13 mg/kg body weight	–	–	–	–	–	–
